Measured values from the supplement of paper PMC10307832.

Tests used:
Assay in all cases: relative viability (nuclei count vs DMSO), 5 days (fraction); higher = more cells survive
NCI-H3122 = test system: NCI-H3122
Method in brief: (§1)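 Lung cancer cell lines in 1536-well plates got either a single drug or a fixed anchor-drug dose together with five library-drug doses (not always all listed) in √10 steps, by pin tool, on the day after seeding. Nuclei were counted after 5 days, and relative viability is the treated-to-vehicle ratio of nuclei counts. Values are medians of duplicate plates.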

HCC-44 = test system: HCC-44
Method in brief: as §1

NCI-H520 = test system: NCI-H520
Method in brief: as §1

NCI-H2347 = test system: NCI-H2347
Method in brief: as §1

PC-14 = test system: PC-14
Method in brief: as §1

NCI-H2085 = test system: NCI-H2085
Method in brief: as §1

NCI-H1734 = test system: NCI-H1734
Method in brief: as §1

NCI-H1993 = test system: NCI-H1993
Method in brief: as §1

201T = test system: 201T
Method in brief: as §1

EKVX = test system: EKVX
Method in brief: as §1

NCI-H2170 = test system: NCI-H2170
Method in brief: as §1

COR-L23 = test system: COR-L23
Method in brief: as §1

NCI-H1650 = test system: NCI-H1650
Method in brief: as §1

NCI-H2405 = test system: NCI-H2405
Method in brief: as §1

NCI-H1793 = test system: NCI-H1793
Method in brief: as §1

RERF-LC-KJ = test system: RERF-LC-KJ
Method in brief: as §1

LOU-NH91 = test system: LOU-NH91
Method in brief: as §1

EPLC-272H = test system: EPLC-272H
Method in brief: as §1

NCI-H2023 = test system: NCI-H2023
Method in brief: as §1

NCI-H441 = test system: NCI-H441
Method in brief: as §1

NCI-H647 = test system: NCI-H647
Method in brief: as §1

SW 900 = test system: SW 900
Method in brief: as §1

ABC-1 = test system: ABC-1
Method in brief: as §1

C[C@@H]1CN(CC(=O)Nc2ccc3c(c2)Cc2cccc(-c4cc(=O)cc(N5CCOCC5)o4)c2S3)C[C@H](C)O1 + Cc1cc(Nc2cc(N3CCN(C)CC3)nc(Sc3ccc(NC(=O)C4CC4)cc3)n2)n[nH]1 [Tozasertib] (partner 0.1 µM)
relative viability (NCI-H3122; first compound 0.04 µM): 0.4
relative viability (NCI-H3122; first compound 0.1265 µM): 0.403
relative viability (NCI-H3122; first compound 0.4 µM): 0.265
relative viability (NCI-H3122; first compound 4 µM): 0.293
relative viability (HCC-44; first compound 0.04 µM): 0.862
relative viability (HCC-44; first compound 0.1265 µM): 0.933
relative viability (HCC-44; first compound 0.4 µM): 1.05
relative viability (HCC-44; first compound 4 µM): 0.652
relative viability (NCI-H520; first compound 0.04 µM): 0.474
relative viability (NCI-H520; first compound 0.1265 µM): 0.454
relative viability (NCI-H520; first compound 0.4 µM): 0.356
relative viability (NCI-H520; first compound 4 µM): 0.448
relative viability (NCI-H2347; first compound 0.04 µM): 0.598
relative viability (NCI-H2347; first compound 0.1265 µM): 0.646
relative viability (NCI-H2347; first compound 0.4 µM): 0.535
relative viability (NCI-H2347; first compound 4 µM): 0.448
relative viability (PC-14; first compound 0.04 µM): 0.451
relative viability (PC-14; first compound 0.1265 µM): 0.562
relative viability (PC-14; first compound 0.4 µM): 0.579
relative viability (PC-14; first compound 4 µM): 0.482
relative viability (NCI-H2085; first compound 0.04 µM): 0.85
relative viability (NCI-H2085; first compound 0.1265 µM): 0.827
relative viability (NCI-H2085; first compound 0.4 µM): 0.739
relative viability (NCI-H2085; first compound 4 µM): 0.551
relative viability (NCI-H1734; first compound 0.04 µM): 0.286
relative viability (NCI-H1734; first compound 0.1265 µM): 0.238
relative viability (NCI-H1734; first compound 0.4 µM): 0.261
relative viability (NCI-H1734; first compound 4 µM): 0.205
relative viability (NCI-H1993; first compound 0.04 µM): 0.567
relative viability (NCI-H1993; first compound 0.1265 µM): 0.592
relative viability (NCI-H1993; first compound 0.4 µM): 0.52
relative viability (NCI-H1993; first compound 4 µM): 0.569
relative viability (201T; first compound 0.04 µM): 0.93
relative viability (201T; first compound 0.1265 µM): 0.882
relative viability (201T; first compound 0.4 µM): 0.909
relative viability (201T; first compound 4 µM): 0.922
relative viability (EKVX; first compound 0.04 µM): 0.389
relative viability (EKVX; first compound 0.1265 µM): 0.44
relative viability (EKVX; first compound 0.4 µM): 0.432
relative viability (EKVX; first compound 4 µM): 0.305
relative viability (NCI-H2170; first compound 0.04 µM): 0.708
relative viability (NCI-H2170; first compound 0.1265 µM): 0.764
relative viability (NCI-H2170; first compound 0.4 µM): 0.719
relative viability (NCI-H2170; first compound 4 µM): 0.614
relative viability (COR-L23; first compound 0.04 µM): 0.199
relative viability (COR-L23; first compound 0.1265 µM): 0.218
relative viability (COR-L23; first compound 0.4 µM): 0.159
relative viability (COR-L23; first compound 4 µM): 0.137
relative viability (NCI-H1650; first compound 0.04 µM): 0.433
relative viability (NCI-H1650; first compound 0.1265 µM): 0.375
relative viability (NCI-H1650; first compound 0.4 µM): 0.344
relative viability (NCI-H1650; first compound 4 µM): 0.239
relative viability (NCI-H2405; first compound 0.04 µM): 0.676
relative viability (NCI-H2405; first compound 0.1265 µM): 0.766
relative viability (NCI-H2405; first compound 0.4 µM): 0.703
relative viability (NCI-H2405; first compound 4 µM): 0.695
relative viability (NCI-H1793; first compound 0.04 µM): 0.279
relative viability (NCI-H1793; first compound 0.1265 µM): 0.313
relative viability (NCI-H1793; first compound 0.4 µM): 0.306
relative viability (NCI-H1793; first compound 4 µM): 0.17
relative viability (RERF-LC-KJ; first compound 0.04 µM): 0.545
relative viability (RERF-LC-KJ; first compound 0.1265 µM): 0.48
relative viability (RERF-LC-KJ; first compound 0.4 µM): 0.496
relative viability (RERF-LC-KJ; first compound 4 µM): 0.351
relative viability (LOU-NH91; first compound 0.04 µM): 0.605
relative viability (LOU-NH91; first compound 0.1265 µM): 0.649
relative viability (LOU-NH91; first compound 0.4 µM): 0.69
relative viability (LOU-NH91; first compound 4 µM): 0.62
relative viability (EPLC-272H; first compound 0.04 µM): 0.189
relative viability (EPLC-272H; first compound 0.1265 µM): 0.237
relative viability (EPLC-272H; first compound 0.4 µM): 0.256
relative viability (EPLC-272H; first compound 4 µM): 0.243
relative viability (NCI-H2023; first compound 0.04 µM): 0.406
relative viability (NCI-H2023; first compound 0.1265 µM): 0.285
relative viability (NCI-H2023; first compound 0.4 µM): 0.238
relative viability (NCI-H2023; first compound 4 µM): 0.175
relative viability (NCI-H441; first compound 0.04 µM): 0.601
relative viability (NCI-H441; first compound 0.1265 µM): 0.678
relative viability (NCI-H441; first compound 0.4 µM): 0.528
relative viability (NCI-H441; first compound 4 µM): 0.49
relative viability (NCI-H647; first compound 0.04 µM): 0.461
relative viability (NCI-H647; first compound 0.1265 µM): 0.278
relative viability (NCI-H647; first compound 0.4 µM): 0.344
relative viability (NCI-H647; first compound 4 µM): 0.192
relative viability (SW 900; first compound 0.04 µM): 0.463
relative viability (SW 900; first compound 0.1265 µM): 0.579
relative viability (SW 900; first compound 0.4 µM): 0.476
relative viability (SW 900; first compound 4 µM): 0.335
relative viability (ABC-1; first compound 0.1265 µM): 0.159
relative viability (ABC-1; first compound 0.4 µM): 0.184
relative viability (ABC-1; first compound 4 µM): 0.16
